Measured values published in patent US10694724B2, “Transgenic mouse for the assessment of thyroid hormone (TH) action” (MAGYAR TUDOMÁNYOS AKADÉMIA KÍSÉRLETI ORVOSTUDOMÁNYI KUTATÓ …, priority 2014, dated 2020).
Entries after “also recorded” stand apart in the source; their conditions may differ.

Experiments:
[1] = tested on: thyroid hormone receptor isoform specific action (TRβ dominant liver, TRα dominant heart; Luciferase reporter); test: Testing TR isoform specific agonists: Luciferase activity in liver and heart of line #4 with decreased endogenous thyroid hormone; type: in vivo, mouse
Protocol: FIG. 7. The transgenic mouse model is capable to detect thyroid hormone receptor isoform specific T3 actions. […] Mean±SEM (n=5) ** p<0.01 by t test.
We decreased the endogenous thyroid hormone levels in line #4 by administering methimazole and perchlorate (0.1% methimazole, 0.5% perchlorate) in the drinking water followed by the i.p. injection of 1.53 nM/g BW of GC-24, a TRβ specific agonist (35). Luciferase activity assay was performed using our established protocol (34) modified for tissue samples, that included treatment of mouse tissue with liquid nitrogen, followed by sonication. In vivo Luciferase imaging has been performed on an IVIS Lumina II In vivo Imaging System (PerkinElmer Waltham, Mass., USA) according to the instructions of the manufacturer.

[2] = tested on: TH action in live animals (Luciferase reporter); test: In vivo bioluminescence imaging of Luciferase in live line #4 mice; set-up: species or system mouse; conditions: 1 μg/g BW T3 i.p., luciferin 24 h later
Protocol: Mean±SEM (n=4) ** p<0.01 **p<0.0001 by t test.
After 15 min, mice were anesthetized with ketamine followed by detection with […] In vivo Imaging System (PerkinElmer Waltham, Mass., USA).

[3] = tested on: luciferase mRNA as a readout of TH action; test: Luciferase mRNA by TaqMan qPCR in the pituitary of line #23; type: in vivo, mouse; conditions: TaqMan assay
Protocol: Expression was assessed with TaqMan assay, Luciferase expression level was denominated with GAPDH expression used as housekeeping gene. Mean±SEM (n=5) *** p<0.0001 by t test.
We also studied whether detection of luciferase mRNA can be used to detect as a readout of TH action in the generated transgenic model. […] TaqMan qPCR was performed on a ViiA 7 Real-Time PCR System (Life Technologies) according to the instructions of the manufacturer. In short, reverse transcription was performed with High Capacity cDNA Reverse Transcriptase Kit (Applied Biosystems by Life Technologies) and concentration of the cDNA was determined using the Qubit 2.0 Fluorometer with the Qubit ssDNA Assay Kit (Life Technologies). A custom Luciferase coding probe was used along with a commercially available probe for Glyceraldehyde-3-phosphate dehydrogenase (GAPDH), later used as housekeeping gene.

[4] = tested on: THAIC construct in HEK293 cells with mouse TRα; test: Luciferase promoter assay in HEK293 cells transfected with THAIC and mouse TRα plasmid; type: cell-based, human; conditions: HEK293 transfected with THAIC, SB100 and mouse TRα plasmid; 100 nM T3
Protocol: The THAIC construct was transfected to the human HEK293 cells along with a pCMV(CAT)T7-SB100 Sleeping Beauty transposon expressing vector and a mouse TRα encoding plasmid. Transfection and cell culturing of HEK293 cells was performed according to our established protocol (36). (FIG. 10)
(B) We also used zeocin-assisted selection and obtained cultures stably expressing Luciferase and generated the HEK293-THAIC cell line stably expressing the TH action indicator construct of the THAM model. The reporter of the cell line is responsive to TH in a TR dependent manner.

[5] = tested on: thyroid hormone (TH) action (3xTRE-TK driven Luciferase reporter); test: Luciferase activity (luciferase assay) in tissues of THAIM line #4 mice; type: in vivo, mouse; conditions: for Fold (mean ± SEM), induced/basal Luciferase activity / induced Luciferase activity: line #4, T4 5 ug/mouse/day for 3 days i.p.
Protocol: (§1) (A, B, C) T4 treatment (5 ug/mouse/day for 3 days; i.p.) in mouse lines #4, 18, and 23. […] All experiments were performed on homozygote males.
(§2) Unilateral denervation of sympathetic nerves innervating the iBAT has been performed as described in (32). Measurement of the activity of type 2 deiodinase was performed according to the American Thyroid Association Guide to investigating thyroid hormone economy and action in rodent and cell models (33)). THAIM #4 mice underwent unilateral denervation of sympathetic nerves innervating the BAT. Luciferase activity assay was performed using our established protocol (34) modified for tissue samples.

[6] = tested on: thyroid hormone (TH) action (3xTRE-TK driven Luciferase reporter); test: Luciferase activity (luciferase assay) in tissues of THAIM line #18 mice; type: in vivo, mouse
Protocol: Characterization of the #4, 18 and 23 lines identified thyroid hormone (5 ug of T4/day/mouse for 3 days) induced induction of Luciferase expression in various tissues of homozygote males.
Basal and thyroid hormone induced values and fold changes (induced/basal) of Luciferase activities in tissues of sacrificed animals (Mean±SEM, n=4). P values oft test (basal vs. induced) are provided, * represents statistical significance. (A, B, C) T4 treatment (5 ug/mouse/day for 3 days; i.p.) in mouse lines #4, 18, and 23. Basal activity levels in #18 are higher than other two lines. […] All experiments were performed on homozygote males.
as §2, with “(FIG. 4). Unilateral” for “Unilateral”, “samples. […] This increase was abolished by denervation but TH action was maintained at room temperature (intact vs. denervated). (A). In the denervated samples, this was paralleled by abolished response of D2 activity to cold and maintenance of the basal D2 activity in the denervated lobe at room temperature (B).” for “samples.”

[7] = tested on: thyroid hormone (TH) action (3xTRE-TK driven Luciferase reporter); test: Luciferase activity (luciferase assay) in tissues of THAIM line #23 mice; type: in vivo, mouse; conditions: for Fold (mean ± SEM), induced/basal Luciferase activity / induced Luciferase activity: line #23, T4 5 ug/mouse/day for 3 days i.p.
Protocol: as §1, §2

[8] = Mandibular salivatory gland (MSG)
[9] = line #18, Cerebellum, T4 5 ug/mouse/day for 3 days i.p.
[10] = line #18, Cortex, T4 5 ug/mouse/day for 3 days i.p.
[11] = line #18, HC, T4 5 ug/mouse/day for 3 days i.p.
[12] = line #18, HT, T4 5 ug/mouse/day for 3 days i.p.
[13] = line #18, MBH, T4 5 ug/mouse/day for 3 days i.p.
[14] = line #18, Pit, T4 5 ug/mouse/day for 3 days i.p.

For `Cc1cc(OCC(=O)O)cc(C)c1Cc1ccc(O)c(Cc2ccccc2)c1` [GC-24], the “Luciferase activity in heart” value ([1]; i.p. 1.53 nM/g BW, after 24 hours, TRα isoform dominant heart) was “did not change; also recorded: no significant change” and the “Luciferase activity in liver” value ([1]; i.p. 1.53 nM/g BW, after 24 hours, TRβ isoform dominant liver) was “significantly increased”.

In the case of `N[C@@H](Cc1cc(I)c(Oc2ccc(O)c(I)c2)c(I)c1)C(=O)O` [T3, 3,5,3′-triiodothyronine], the “luciferase activity in both tissues (liver and heart)” value ([1]; T3 administration) was “significant increase”, the “reporter activity in the BAT and intestine (in vivo imaging)” value [2] was “very intense increase” and the “reporter activity in the mandibular salivary gland (MSG) and skin of the tail and foot pads (in vivo imaging)” value [2] was “up-regulated”. For the same molecule, the “induction of luciferase mRNA in the pituitary” value ([3]; 1 μg/g bw T3 i.p., GAPDH housekeeping) was about 50 fold, the “Luciferase mRNA level in the pituitary” value ([3]; T3-treatment, denominated with GAPDH) was “robustly increased” and the “induction of Luciferase expression” value [4] was “approximately 4 fold”.

For `N[C@@H](Cc1cc(I)c(Oc2cc(I)c(O)c(I)c2)c(I)c1)C(=O)O` [T4, thyroxine], the “Fold (mean ± SEM), induced/basal Luciferase activity” value ([5]; Bone) was 2.2 ± 0.18 Fold, the “induced Luciferase activity” value ([5]; Bone) was 0.066 RLU/mg protein and the “Fold (mean ± SEM), induced/basal Luciferase activity” value ([5]; Cerebellum (CER)) was 2.3 ± 0.41 Fold. For the same molecule, the “induced Luciferase activity” value ([5]; Cerebellum (CER)) was 2.162 RLU/mg protein, the “Fold (mean ± SEM), induced/basal Luciferase activity” value ([5]; Cortex (CTX)) was 1.9 ± 0.30 Fold and the “induced Luciferase activity” value ([5]; Cortex (CTX)) was 0.359 RLU/mg protein. The “Fold (mean ± SEM), induced/basal Luciferase activity” value ([5]; Heart) was 8.5 ± 0.31 Fold, the “induced Luciferase activity” value ([5]; Heart) was 0.030 RLU/mg protein and the “Fold (mean ± SEM), induced/basal Luciferase activity” value ([5]; Hippocampus (HC)) was 1.9 ± 0.03 Fold. The “induced Luciferase activity” value ([5]; Hippocampus (HC)) was 0.116 RLU/mg protein, the “Fold (mean ± SEM), induced/basal Luciferase activity” value ([5]; Hypothalamus (HT)) was 1.3 ± 0.08 Fold and the “induced Luciferase activity” value ([5]; Hypothalamus (HT)) was 0.488 RLU/mg protein. The “Fold (mean ± SEM), induced/basal Luciferase activity” value ([5]; Intestine) was 2.1 ± 0.30 Fold, the “induced Luciferase activity” value ([5]; Intestine) was 9.480 RLU/mg protein and the “Fold (mean ± SEM), induced/basal Luciferase activity” value ([5]; Liver) was 1.9 ± 0.14 Fold. For the same molecule, the “induced Luciferase activity” value ([5]; Liver) was 0.005 RLU/mg protein, the “Fold (mean ± SEM), induced/basal Luciferase activity” value [5, 8] was 7.6 ± 2.60 Fold and the “induced Luciferase activity” value [5, 8] was 0.399 RLU/mg protein. For the same molecule, the “Fold (mean ± SEM), induced/basal Luciferase activity” value ([5]; Mediobasal Hypothalamus (MBH)) was 1.8 ± 0.20 Fold, the “induced Luciferase activity” value ([5]; Mediobasal Hypothalamus (MBH)) was 0.368 RLU/mg protein and the “Fold (mean ± SEM), induced/basal Luciferase activity” value ([5]; Muscle) was 11.2 ± 5.7 Fold. For the same molecule, the “induced Luciferase activity” value ([5]; Muscle) was 0.276 RLU/mg protein, the “Fold (mean ± SEM), induced/basal Luciferase activity” value ([5]; Pituitary (Pit)) was 2.3 ± 0.16 Fold and the “induced Luciferase activity” value ([5]; Pituitary (Pit)) was 0.791 RLU/mg protein. For the same molecule, the “Fold (mean ± SEM), induced/basal Luciferase activity” value ([5]; Skin) was 4.0 ± 0.76 Fold, the “induced Luciferase activity” value ([5]; Skin) was 2.798 RLU/mg protein and the “Fold (mean ± SEM), induced/basal Luciferase activity” value ([5]; Testicle) was 0.8 ± 0.06 Fold. The induced Luciferase activity ([5]; Testicle) was 4.09 RLU/mg protein, the “Fold (mean ± SEM), induced/basal Luciferase activity” value ([5]; Thyroid) was 1.5 ± 0.07 Fold and the “induced Luciferase activity” value ([5]; Thyroid) was 0.176 RLU/mg protein. The “Fold (mean ± SEM), induced/basal Luciferase activity” value ([5]; iBAT) was 64.6 ± 8.1 Fold, the “induced Luciferase activity” value ([5]; iBAT) was 1.820 RLU/mg protein and the “induction of Luciferase expression in the BAT” value ([5]; line #4 homozygote males, 5 ug of T4/day/mouse for 3 days) was “striking response”. The “Fold (mean ± SEM), induced/basal Luciferase activity” value [6, 9] was 1.8 ± 0.31 Fold, the “induced Luciferase activity” value [6, 9] was 0.063 RLU/mg protein and the “Fold (mean ± SEM), induced/basal Luciferase activity” value [6, 10] was 1.9 ± 1.18 Fold. The “induced Luciferase activity” value [6, 10] was 2.586 RLU/mg protein, the “Fold (mean ± SEM), induced/basal Luciferase activity” value [6, 11] was 2.1 ± 0.25 Fold and the “induced Luciferase activity” value [6, 11] was 3.756 RLU/mg protein. The “Fold (mean ± SEM), induced/basal Luciferase activity” value [6, 12] was 2.8 ± 0.35 Fold, the “induced Luciferase activity” value [6, 12] was 1.589 RLU/mg protein and the “Luciferase activity (basal and induced)” value ([6]; line #18, Liver (cell also covers Heart, iBAT, Bone, Muscle, MSG, Thyroid, Testicle, Intestine), T4 5 ug/mouse/day for 3 days i.p.) was “no expression”. For the same molecule, the “Fold (mean ± SEM), induced/basal Luciferase activity” value [6, 13] was 2.2 ± 0.25 Fold, the “induced Luciferase activity” value [6, 13] was 0.602 RLU/mg protein and the “Fold (mean ± SEM), induced/basal Luciferase activity” value [6, 14] was 8.2 ± 0.36 Fold. For the same molecule, the “induced Luciferase activity” value [6, 14] was 0.540 RLU/mg protein, the “response of Luciferase expression in the pituitary” value ([6]; line #18 homozygote males, 5 ug of T4/day/mouse for 3 days) was “intense response” and the “Fold (mean ± SEM), induced/basal Luciferase activity” value ([7]; Bone) was 0.9 ± 0.56 Fold. The “induced Luciferase activity” value ([7]; Bone) was 0.011 RLU/mg protein, the “Fold (mean ± SEM), induced/basal Luciferase activity” value ([7]; CER) was 1.9 ± 0.28 Fold and the “induced Luciferase activity” value ([7]; CER) was 0.023 RLU/mg protein. For the same molecule, the “Fold (mean ± SEM), induced/basal Luciferase activity” value ([7]; CTX) was 1.8 ± 0.21 Fold, the “induced Luciferase activity” value ([7]; CTX) was 0.065 RLU/mg protein and the “Fold (mean ± SEM), induced/basal Luciferase activity” value ([7]; HC) was 1.1 ± 0.32 Fold. The “induced Luciferase activity” value ([7]; HC) was 0.040 RLU/mg protein, the “Fold (mean ± SEM), induced/basal Luciferase activity” value ([7]; HT) was 2.7 ± 1.35 Fold and the “induced Luciferase activity” value ([7]; HT) was 0.144 RLU/mg protein. The “Fold (mean ± SEM), induced/basal Luciferase activity” value ([7]; Heart) was 1.0 ± 0.47 Fold, the “induced Luciferase activity” value ([7]; Heart) was 0.003 RLU/mg protein and the “Fold (mean ± SEM), induced/basal Luciferase activity” value ([7]; Liver) was 1.7 ± 0.19 Fold. For the same molecule, the “induced Luciferase activity” value ([7]; Liver) was 0.004 RLU/mg protein, the “Fold (mean ± SEM), induced/basal Luciferase activity” value ([7]; MBH) was 1.7 ± 0.29 Fold and the “induced Luciferase activity” value ([7]; MBH) was 0.240 RLU/mg protein. The “Fold (mean ± SEM), induced/basal Luciferase activity” value ([7]; Muscle) was 0.7 ± 0.18 Fold, the “induced Luciferase activity” value ([7]; Muscle) was 0.003 RLU/mg protein and the “Fold (mean ± SEM), induced/basal Luciferase activity” value ([7]; Pit) was 8.8 ± 0.62 Fold. For the same molecule, the “induced Luciferase activity” value ([7]; Pit) was 16.926 RLU/mg protein, the “Fold (mean ± SEM), induced/basal Luciferase activity” value ([7]; iBAT) was 7.2 ± 1.54 Fold and the “induced Luciferase activity” value ([7]; iBAT) was 0.038 RLU/mg protein. The “response of Luciferase expression in the pituitary and hypothalamus” value ([7]; line #23 homozygote males, 5 ug of T4/day/mouse for 3 days) was “intense response”.
